Assay results: patent publication US12606520B2, “Calpain-2 inhibitor compounds and methods of treatment” (WESTERN UNIVERSITY OF HEALTH SCIENCES, priority 2020, dated 2026)

Target: T1, calpain-2 (Rattus norvegicus, UniProt Q07009)
T1 construct: from tissue; host or cells: rat brain after TBI
T1 sequence (Q07009 1-700): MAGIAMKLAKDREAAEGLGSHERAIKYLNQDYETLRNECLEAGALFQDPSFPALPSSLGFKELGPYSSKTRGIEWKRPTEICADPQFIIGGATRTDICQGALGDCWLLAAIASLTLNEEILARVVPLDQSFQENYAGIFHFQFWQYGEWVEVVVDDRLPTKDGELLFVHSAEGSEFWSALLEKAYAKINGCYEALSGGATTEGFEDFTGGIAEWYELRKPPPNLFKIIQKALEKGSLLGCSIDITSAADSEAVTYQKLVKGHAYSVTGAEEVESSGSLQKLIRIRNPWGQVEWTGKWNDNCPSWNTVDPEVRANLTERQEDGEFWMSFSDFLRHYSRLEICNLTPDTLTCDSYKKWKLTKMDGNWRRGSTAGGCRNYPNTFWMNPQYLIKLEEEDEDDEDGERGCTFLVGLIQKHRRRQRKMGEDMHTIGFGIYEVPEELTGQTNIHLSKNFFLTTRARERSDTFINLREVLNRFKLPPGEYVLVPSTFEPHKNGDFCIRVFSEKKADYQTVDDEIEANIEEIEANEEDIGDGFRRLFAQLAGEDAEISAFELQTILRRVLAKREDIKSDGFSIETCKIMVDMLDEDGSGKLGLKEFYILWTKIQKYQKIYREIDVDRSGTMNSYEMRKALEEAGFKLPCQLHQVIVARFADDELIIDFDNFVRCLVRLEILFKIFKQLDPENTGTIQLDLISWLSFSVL
T1 sequence (Q64537 1-270 partner): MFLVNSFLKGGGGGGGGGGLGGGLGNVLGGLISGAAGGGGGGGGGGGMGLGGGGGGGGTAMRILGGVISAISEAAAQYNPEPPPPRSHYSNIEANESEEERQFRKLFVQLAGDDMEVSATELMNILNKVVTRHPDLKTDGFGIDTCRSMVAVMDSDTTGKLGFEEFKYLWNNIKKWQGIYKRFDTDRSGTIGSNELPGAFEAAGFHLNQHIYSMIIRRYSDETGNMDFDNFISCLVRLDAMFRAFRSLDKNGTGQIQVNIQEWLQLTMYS
Assay: Calpain-2 activity in brain after TBI in rats
Assay type: in vivo
Details: 1 mg/kg i.p. at 1 h and 8 h after TBI, 24 h after TBI
Description: We also performed the same model of TBI in male and female mice and in male and female rats. In all cases, NA184 was injected i.p. at 1 mg/kg. For the rat experiments, NA184 was injected twice at 1 h and 8 h after TBI. Animals were sacrificed 24 h after TBI and calpain activity was assayed in brain and cell death was analyzed in cortex. […] In addition, there was a highly significant correlation between calpain-2 activity and cell death in rats (FIG. 23). R^2 was 0.61 and p<0.005.

## CCC(NC(=O)[C@H](CC(C)C)NC(=O)NCc1ccccc1)C(=O)C(=O)NCc1cccc(Cl)c1OC (stereo partly drawn) [NA184, (2S)-2-(3-benzylureido)-N-(1-((3-chloro-2-methoxybenzyl)amino)-1,2-dioxopentan-3-yl)-4-methylpentanamide]
  Calpain-2 inhibition in brain, male and female rats: significantly inhibited calpain-2
